Structures are written as SMILES. Toxic doses and inconclusive results are not listed.

The test system of this assay is BDF1 mice, P388 leukemia ip, median survival T/C. As to the kind of experiment: NCI In Vivo Anticancer Drug Screen. Data for tumor model P388 Leukemia (intraperitoneal) in B6D2F1 (BDF1) mice. As to conditions: endpoint: median survival time, higher = longer survival. The essentials: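 Compound-treated tumour-bearing mice were compared with vehicle-treated controls. Survival was recorded, and the value is the treated-group measurement divided by the control-group measurement (T/C).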

Where [1] appears, read: dose: 25.0 mg/kg/injection, schedule: Q01DX009 (ip), vehicle: water.

As for `CC[C@]1(O)C[C@H]2CN(CCc3c([nH]c4ccccc34)[C@@](C(=O)OC)(c3cc4c(cc3OC)N(C)[C@H]3[C@@](O)(C(=O)OC)[C@H](OC(C)=O)[C@]5(CC)C=CCN6CC[C@]43[C@@H]65)C2)C1`, the T/C by setting is: (dose: 0.03 mg/kg/injection, schedule: Q03HX024 (ip), vehicle: saline) 185 % of control; (dose: 0.06 mg/kg/injection, schedule: Q03HX016 (ip), vehicle: saline) 162 % of control; (dose: 0.12 mg/kg/injection, schedule: Q01DX009 (ip), vehicle: saline) 166 % of control; (dose: 0.12 mg/kg/injection, schedule: Q01DX009 (ip), vehicle: water) 252 % of control; (dose: 0.12 mg/kg/injection, schedule: Q03HX016 (ip), vehicle: saline) 222 % of control; (dose: 0.12 mg/kg/injection, schedule: Q03HX024 (ip), vehicle: saline) 222 % of control. The T/C by setting is: (dose: 0.25 mg/kg/injection, schedule: Q01DX009 (ip), vehicle: saline) 185 % of control; (dose: 0.25 mg/kg/injection, schedule: Q01DX009 (ip), vehicle: water) 240 % of control; (dose: 0.25 mg/kg/injection, schedule: Q01DX010 (ip), vehicle: water) 209 % of control; (dose: 0.25 mg/kg/injection, schedule: Q03HX008 (ip), vehicle: saline) 185 % of control; (dose: 0.25 mg/kg/injection, schedule: Q03HX016 (ip), vehicle: saline) 214 % of control; (dose: 0.25 mg/kg/injection, schedule: Q04DX003 (ip), vehicle: saline) 166 % of control. In addition, the T/C is 214 % of control (dose: 0.5 mg/kg/injection, schedule: Q01DX009 (ip), vehicle: saline); 222 % of control (dose: 0.5 mg/kg/injection, schedule: Q01DX009 (ip), vehicle: water); 195 % of control (dose: 0.5 mg/kg/injection, schedule: Q01DX010 (ip), vehicle: water); 196 % of control (dose: 0.5 mg/kg/injection, schedule: Q04DX003 (ip), vehicle: saline); 170 % of control (dose: 0.5 mg/kg/injection, schedule: Q08DX002 (ip), vehicle: saline); 200 % of control (dose: 0.65 mg/kg/injection, schedule: Q04DX003 (ip), vehicle: saline). The T/C is, setting by setting: (dose: 1.0 mg/kg/injection, schedule: Q01DX009 (ip), vehicle: saline) 92 % of control; (dose: 1.0 mg/kg/injection, schedule: Q03HX008 (ip), vehicle: saline) 200 % of control; (dose: 1.0 mg/kg/injection, schedule: Q03HX016 (ip), vehicle: saline) 96 % of control; (dose: 1.0 mg/kg/injection, schedule: Q04DX003 (ip), vehicle: saline) 214 % of control; (dose: 1.0 mg/kg/injection, schedule: Q08DX002 (ip), vehicle: saline) 188 % of control; (dose: 1.08 mg/kg/injection, schedule: Q04DX003 (ip), vehicle: saline) 193 % of control. Besides, the T/C (dose: 1.8 mg/kg/injection, schedule: Q04DX003 (ip), vehicle: saline) is 234 % of control; the T/C (dose: 2.0 mg/kg/injection, schedule: Q01DX001 (ip), vehicle: saline) was 162 % of control; the T/C (dose: 2.0 mg/kg/injection, schedule: Q01DX001 (ip), vehicle: water) was 150 % of control; the T/C (dose: 2.0 mg/kg/injection, schedule: Q04DX003 (ip), vehicle: saline) was 96 % of control; the T/C (dose: 2.0 mg/kg/injection, schedule: Q08DX002 (ip), vehicle: saline) was 214 % of control; the T/C (dose: 3.0 mg/kg/injection, schedule: Q04DX003 (ip), vehicle: saline) was 95 % of control. Also, the T/C (dose: 4.0 mg/kg/injection, schedule: Q01DX001 (ip), vehicle: saline) was 185 % of control; the T/C (dose: 4.0 mg/kg/injection, schedule: Q01DX001 (ip), vehicle: water) was 161 % of control; the T/C (dose: 4.0 mg/kg/injection, schedule: Q08DX002 (ip), vehicle: saline) was 100 % of control; the T/C (dose: 8.0 mg/kg/injection, schedule: Q01DX001 (ip), vehicle: saline) was 177 % of control; the T/C (dose: 8.0 mg/kg/injection, schedule: Q08DX002 (ip), vehicle: saline) was 96 % of control; the T/C (dose: 16.0 mg/kg/injection, schedule: Q01DX001 (ip), vehicle: saline) was 188 % of control. In addition, the T/C was 200 % of control (dose: 625.0 micrograms/kg/injection, schedule: Q04DX003 (ip), vehicle: saline); 180 % of control (dose: 648.0 micrograms/kg/injection, schedule: Q04DX003 (ip), vehicle: saline); 195 % of control (dose: 1080.0 micrograms/kg/injection, schedule: Q04DX003 (ip), vehicle: saline); 238 % of control (dose: 1250.0 micrograms/kg/injection, schedule: Q04DX003 (ip), vehicle: saline); 190 % of control (dose: 1800.0 micrograms/kg/injection, schedule: Q04DX003 (ip), vehicle: saline); 230 % of control (dose: 2500.0 micrograms/kg/injection, schedule: Q04DX003 (ip), vehicle: saline).

For the compound `O=[N+]([O-])c1cc([N+](=O)[O-])c2ccccc2c1NS(=O)(=O)c1ccc(Cl)c(Cl)c1`, the T/C runs as follows: (dose: 50.0 mg/kg/injection, schedule: Q01DX009 (ip), vehicle: saline with Tween-80) 92 % of control; (dose: 100.0 mg/kg/injection, schedule: Q01DX009 (ip), vehicle: saline with Tween-80) 111 % of control.

`CCOC(=O)CCC(=O)CC(O)(C(F)(F)F)C(F)(F)Cl` (stereo not drawn): the T/C (dose: 100.0 mg/kg/injection, schedule: Q04DX003 (ip), vehicle: saline with Tween-80) was 100 % of control; the T/C (dose: 200.0 mg/kg/injection, schedule: Q04DX003 (ip), vehicle: saline with Tween-80) was 90 % of control; the T/C (dose: 400.0 mg/kg/injection, schedule: Q04DX003 (ip), vehicle: saline with Tween-80) was 95 % of control.

In the case of `Cc1cnc2nc(N)[nH]c(=O)c2c1`, the T/C reads like this: (dose: 37.5 mg/kg/injection, schedule: Q04DX003 (ip), vehicle: saline sonified) 100 % of control; (dose: 75.0 mg/kg/injection, schedule: Q04DX003 (ip), vehicle: saline sonified) 110 % of control; (dose: 150.0 mg/kg/injection, schedule: Q04DX003 (ip), vehicle: saline sonified) 100 % of control.

Regarding `CC(C)NCC(O)COc1ccc2ncsc2c1` (stereo not drawn), the T/C (dose: 50.0 mg/kg/injection, schedule: Q01DX009 (ip), vehicle: saline) is 108 % of control; the T/C (dose: 100.0 mg/kg/injection, schedule: Q01DX009 (ip), vehicle: saline) was 110 % of control; the T/C (dose: 200.0 mg/kg/injection, schedule: Q01DX009 (ip), vehicle: saline) was 91 % of control.

`O=C(NCCNC(=O)c1cccc([N+](=O)[O-])c1O)c1cccc([N+](=O)[O-])c1O`: the T/C is 100 % of control (dose: 50.0 mg/kg/injection, schedule: Q01DX001 (ip), vehicle: Klucel (hydroxypropylcellulose) (HPC)); 100 % of control (dose: 100.0 mg/kg/injection, schedule: Q01DX001 (ip), vehicle: Klucel (hydroxypropylcellulose) (HPC)); 104 % of control (dose: 200.0 mg/kg/injection, schedule: Q01DX001 (ip), vehicle: Klucel (hydroxypropylcellulose) (HPC)).

`Cc1ccc(/C=C2\NC(=O)NC2=O)cc1`: the T/C is, setting by setting: under setting [1], 106 % of control; (dose: 50.0 mg/kg/injection, schedule: Q01DX009 (ip), vehicle: water) 106 % of control; (dose: 50.0 mg/kg/injection, schedule: Q04DX003 (ip), vehicle: water) 94 % of control; (dose: 100.0 mg/kg/injection, schedule: Q01DX009 (ip), vehicle: water) 95 % of control; (dose: 100.0 mg/kg/injection, schedule: Q04DX003 (ip), vehicle: water) 106 % of control; (dose: 200.0 mg/kg/injection, schedule: Q01DX009 (ip), vehicle: water) 98 % of control. The T/C was 103 % of control (dose: 200.0 mg/kg/injection, schedule: Q04DX003 (ip), vehicle: water); 94 % of control (dose: 400.0 mg/kg/injection, schedule: Q01DX009 (ip), vehicle: water); 97 % of control (dose: 400.0 mg/kg/injection, schedule: Q04DX003 (ip), vehicle: water).

Turning to `COc1cccc2c1C(=O)c1c(O)c3c(c(O)c1C2=O)CC(O)(/C(C)=N/NC(=O)CCCCCCCCC(=O)N/N=C(\C)C1(O)Cc2c(O)c4c(c(O)c2C(OC2CC(N)C(O)C(C)O2)C1)C(=O)c1c(OC)cccc1C4=O)CC3OC1CC(N)C(O)C(C)O1` (stereo not drawn), the T/C is, setting by setting: (dose: 3.13 mg/kg/injection, schedule: Q01DX009 (ip), vehicle: water) 172 % of control; (dose: 6.25 mg/kg/injection, schedule: Q01DX009 (ip), vehicle: water) 210 % of control; under setting [1], 88 % of control.

The record behind these values is PubChem BioAssay AID328 (DTP/NCI, 2004).
